Values joined by “and” are separate entries in the source; they are usually repeats but may differ in a detail not shown here. Identical values can stand only once.
Columns and labels:
NF-κB = assay: TNF-α-stimulated NF-κB dual luciferase reporter assay in HeLa cells; assay type: cell-based
Procedure, shortened: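 HeLa cells transfected with NF-κB firefly luciferase and Renilla pRLuc-N3 plasmids (8:1), in triplicate; TNF-α stimulation with drug, luminescence read 5 h later by Dual-Glo. Firefly/Renilla ratio normalised to viable transfected cells, expressed as fold over cells without TNF-α or drug.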

MMT/MCLT rat model of OA = assay: MMT/MCLT trial 1 histopathology (same doses); assay type: in vivo; design: key to Tibial cartilage degeneration score, 3-zone total: sum of three tibial zone scores (each on 5-point scale); key to Total joint score w/o femur / Total joint score / Total joint score without femur: sum: cartilage degeneration scores + mean osteophyte score; conditions: low or only dose; for Bone score / Depth ratio any matrix change, mean / Depth ratio any matrix change, zone 2 / Femoral cartilage degeneration score / Tibial cartilage degeneration score, 3-zone total / Tibial cartilage degeneration score, zone 1 / Tibial cartilage degeneration score, zone 2 / Tibial cartilage degeneration score, zone 3 / Tibial cartilage degeneration width, significant / Tibial cartilage degeneration width, total / Tibial osteophyte measure / Tibial osteophyte score / Total joint score / Total joint score w/o femur: mean; for % decrease, bone score / % decrease, depth ratio mean / % decrease, depth ratio zone 2 / % decrease, femoral cartilage degeneration score / % decrease, osteophyte measure / % decrease, osteophyte score / % decrease, significant degeneration width / % decrease, tibial score 3-zone total / % decrease, tibial score zone 1 / % decrease, tibial score zone 2 / % decrease, tibial score zone 3 / % decrease, total degeneration width / % decrease, total joint score / % decrease, total joint score w/o femur: vs saline group
Procedure, shortened: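 Rat knee joints were sectioned in 200-μm steps and stained with toluidine blue. Tibial cartilage degeneration was scored on a 5-point scale in three zones and summed with femoral scores, plus osteophyte scores, to give a total joint score. Results were averaged over three sections.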

Structure (SMILES) | Bone score (MMT/MCLT rat model of OA) | Depth ratio any matrix change, mean (MMT/MCLT rat model of OA) | Depth ratio any matrix change, zone 2 (MMT/MCLT rat model of OA) | Femoral cartilage degeneration score (MMT/MCLT rat model of OA) | Tibial cartilage degeneration score, 3-zone total (MMT/MCLT rat model of OA) | Tibial cartilage degeneration score, zone 1 (MMT/MCLT rat model of OA) | Tibial cartilage degeneration score, zone 2 (MMT/MCLT rat model of OA) | Tibial cartilage degeneration score, zone 3 (MMT/MCLT rat model of OA) | Tibial cartilage degeneration width, significant (MMT/MCLT rat model of OA) [µm] | Tibial cartilage degeneration width, total (MMT/MCLT rat model of OA) [µm] | Tibial osteophyte measure (MMT/MCLT rat model of OA) [µm] | Tibial osteophyte score (MMT/MCLT rat model of OA) | Total joint score (MMT/MCLT rat model of OA) | Total joint score w/o femur (MMT/MCLT rat model of OA) | % decrease, bone score (MMT/MCLT rat model of OA) [%] | % decrease, depth ratio mean (MMT/MCLT rat model of OA) [%] | % decrease, depth ratio zone 2 (MMT/MCLT rat model of OA) [%] | % decrease, femoral cartilage degeneration score (MMT/MCLT rat model of OA) [%] | % decrease, osteophyte measure (MMT/MCLT rat model of OA) [%] | % decrease, osteophyte score (MMT/MCLT rat model of OA) [%] | other results
CC1=C(CO)C(=O)O[C@@H]([C@@H](C)[C@H]2CC[C@H]3[C@@H]4C[C@H]5O[C@]56[C@@H](O)C=CC(=O)[C@]6(C)[C@H]4CC[C@]23C)C1 [Withaferin A] | 2.88 | 0.38 | 0.18 | 1.83 and 1.83 ± 0.52 | 6.04 | 4.13 | 1.88 | 0.04 | 637.50 | 1262.50 | 515.42 | 3.96 | 11.83 and 11.83 ± 0.61 | 10.00 | 12 | -5 | 0 | 0 | 0 | -1 | Effective against NF κβ (p<0.05) (NF-κB): 2 to 17 µM; % decrease, significant degeneration width (MMT/MCLT rat model of OA): 12%; % decrease, tibial score 3-zone total (MMT/MCLT rat model of OA): 8%; % decrease, tibial score zone 1 (MMT/MCLT rat model of OA): 4%; % decrease, tibial score zone 2 (MMT/MCLT rat model of OA): 15%; % decrease, tibial score zone 3 (MMT/MCLT rat model of OA): 0%; % decrease, total degeneration width (MMT/MCLT rat model of OA): 4%; % decrease, total joint score (MMT/MCLT rat model of OA): 4%; % decrease, total joint score w/o femur (MMT/MCLT rat model of OA): 4%
Clc1cccc(Cl)c1N=C1NCCN1 [Clonidine] | 2.88 | 0.35 | 0.16 | 1.29 and 1.29 ± 0.20 | 6.13 | 4.13 | 2.00 | 0.00 | 691.67 | 1175.00 | 540.00 | 3.92 | 11.33 and 11.33 ± 0.55 | 10.04 | 12 | 2 | 14 | 30 | -5 | 0 | Effective range against NFkB (NF-κB): Not effective; % decrease, significant degeneration width (MMT/MCLT rat model of OA): 5%; % decrease, tibial score 3-zone total (MMT/MCLT rat model of OA): 6%; % decrease, tibial score zone 1 (MMT/MCLT rat model of OA): 4%; % decrease, tibial score zone 2 (MMT/MCLT rat model of OA): 9%; % decrease, tibial score zone 3 (MMT/MCLT rat model of OA): 100%; % decrease, total degeneration width (MMT/MCLT rat model of OA): 10%; % decrease, total joint score (MMT/MCLT rat model of OA): 8%; % decrease, total joint score w/o femur (MMT/MCLT rat model of OA): 4%

— article PMC4721142, “Randomized controlled studies on the efficacy of antiarthritic agents in inhibiting cartilage degeneration and pain associated with progression of osteoarthritis in the rat” (Arthritis Research & Therapy, 2016)
